Results taken from article PMC8044163, “Vitamin D and lumisterol derivatives can act on liver X receptors (LXRs)” (Scientific Reports, 2021).

System: LXRα/β binding to the LXRE within the ABCA1 promoter region
Experiment: ChIP assay in HaCaT keratinocytes
Format: cell-based, human
Conditions: 10^–7 M, 24 h
Text: We followed protocols described in Ref.[40]. […] The cells were harvested and in vivo crosslinking, lysis and sonication of the chromatin, as well as following steps of ChIP assay, were done using Magna ChiP G Kit 0002 (Millipore). […] The purified DNA fragments were PCR amplified with the following sequence of PCR primers for human ABCA1 LXR-responsive element (LXRE): Forward: [NT], Reverse: [NT] and for human GAPDH as a reference gene: Forward: [NT], Reverse: [NT] (Eurofins Genomics). The PCR reaction was performed using Dream Taq Green PCR Master Mix (2×) (Thermo Scientific, cat. no. K1081) according to the following procedure: initial denaturation: 95 °C for 3 min; denaturation: 95 °C for 30 s (× 35 cycles); annealing: 58 °C for 30 s (× 35 cycles in the same cycles with denaturation); extension: 72 °C for 1 min; final extension: 72 °C for 15 min. The detection of amplification product was done by standard agarose gel electrophoresis with EtBr using Invitrogen iBright CL1000 Imaging System, with # SM Gene Ruler 1 kb Plus DNA Ladder (Thermo Scientific) as a marker.

## C=C1/C(=C\C=C2/CCC[C@]3(C)[C@@H]([C@H](C)CCCC(C)(C)O)CC[C@@H]23)C[C@@H](O)C[C@@H]1O [1,25(OH)2D3, reference compound]
  LXRα/β binding to the LXRE within the ABCA1 promoter region (ChIP): significant stimulation
